Data on one molecule can be found in ChEMBL document CHEMBL1126490, “An unusual oxetane nucleoside as a potent antiviral agent” (1993).

“And” between values parts separate entries of the source, which are not always exact repeats. Identical values can stand only once.

Holding throughout (assay type): functional
The subject of experiment [1] is Mus musculus. The experiment is described as follows: Percent survival of mice against Japanese encephalitis virus after 10 mg/Kg peroral administration of compound. Particulars: po.
The subject of experiment [2] is Mus musculus. The experiment is described as follows: Percent survival of mice against forest virus after 10 mg/Kg peroral administration of compound. The settings on record: po.
For experiment [3], the species on record is Mus musculus. The experiment is described as follows: Mean survival time of mice against Japanese encephalitis virus was determined.
For experiment [4], the system named is Mus musculus. Nature of the experiment: Percent survival of mice against forest virus after 5 mg/Kg peroral administration of compound. The settings on record: po.
For experiment [5], the species on record is Mus musculus. Nature of the experiment: Mean survival time of mice against forest virus was determined.
Experiment [6] has as its system Mus musculus. The experiment is described as follows: Percent survival of mice against Japanese encephalitis virus after 5 mg/Kg peroral administration of the compound. The settings on record: po.

Consider `Nc1ncnc2c1ncn2C1OC2COC2C1O` (stereo unspecified), for which the survival at 10 mg/kg in the experiment on Mus musculus [1] was determined as 67%; with Mus musculus [2] it was 50%. The MST in the experiment filed under Mus musculus [3] was 10.7 days and 15.5 days; in the experiment listed under Mus musculus [5], 11.6 days and 11.8 days. The survival at 5 mg/kg with Mus musculus [4] and in the experiment on Mus musculus [6] was 37% throughout.
